Reference: patent US20250034586A1, “METHOD FOR EDITING BANANA GENES” (Tropic Biosciences UK Limited, priority 2021, published 2025)

Key:
[1] = test system: Banana embryogenic cell suspensions (ECS); test: CSF kill curves in banana ECS (number of embryos after short CSF treatment); format: cell-based; details: for Number of banana embryos developed (Avg): 3 months after treatment
Protocol: Banana embryogenic cell suspensions (ECS) were pelleted in a falcon tube and mixed with CS (cell suspension) medium to a final cell density of 1-3%. An equal volume of the mixture was split into 6 flasks and the relevant amount of CSF was added to the final concentrations of 0, 10, 20, 50, 100 and 500 μg/L (1st kill curve) or 0, 0.5, 5, 50 and 100 mg/L (2nd kill curve). The ECS-CSF mixtures were placed/inoculated in 6 well plates (5 mL per well) and incubated at 65 rpm in the dark for 3, 5, 10, 15 days at 25° C.
At each time point, the ECS were collected in a cell strainer and washed with CS (cell suspension) medium to remove all the CSF. The cells were collected from the strainer and inoculated into embryo developing media (EDM) plates and developed for 2-3 months (until fully developed embryos were observed). The cells/embryos were subcultured every month. Each treatment was performed in triplicate and treated independently.
The number of embryos was assessed 2-3 months after CSF treatment. The embryos were counted under a stereo microscope using a 50-square grid to help the counting. For plates with too many embryos, only 3 squares from the 50 were counted and then the number of embryos was normalised for all of the plate. For the other plates all embryos were counted. Mean values±standard deviation (Stdev) were obtained from 3 technical replicates.

banana ECS [2] = test: CSF selection of embryos from Agrobacterium-transformed banana ECS; format: cell-based; details: after 3 months
Protocol: Agrobacterium tumefaciens AGL1 carrying the binary plasmids pMol_0628, pMol_0630, and pMol_0632 were streaked from glycerol in LB solid medium supplemented with rifampicin 50 mg/L, kanamycin 100 mg/L and carbenicillin 50 mg/L and incubated at 28° C. for 2 days. On the second day, the bacteria were inoculated in MG/L medium (discussed in Sarkar et al., Methods Mol Biol. 2013; 966: 187-204) supplemented with the same antibiotics and incubated overnight at 28° C. Next day, the cultures were spun down at 4000 rpm for 10 min to pellet the cells and after they were resuspended in ABIM (Agrobacterium induction media; discussed in Sarkar et al., Methods Mol Biol. 2013; 966: 187-204) to induce virulence and incubated overnight in the dark at room temperature. The OD600 of the bacteria was measured using NanoDrop2000 and normalised to 0.6 in CS liquid media supplemented with acetosyringone (100 μM).
Banana ECS with 2/3 day-old cells was pelleted and resuspended in CS medium. 0.5 mL of the suspension (approximately 0.1 mL of ECS) was split according to the number of transformations into small Eppendorf tubes. The cells were incubated at 45° C. for 5 min and after they were incubated at room temperature for another 5 min. Then, 1 mL of agrobacterium suspension was added to each banana ECS sample. […]

banana ECS [3] = test: Comparison of Agrobacterium transformation and particle bombardment under CSF selection; format: cell-based; details: CSF 25 μg/L, particle bombardment
Protocol: Transformation using agrobacterium and particle bombardment was compared.
Banana ECS with cells 2/3 days old was pelleted and resuspended in CS medium. 0.5 mL of the suspension (approximately 0.1 mL of ECS) was split accordingly to the number of transformations into small Eppendorf tubes. The cells were incubated at 45° C. for 5 min and after they had cooled down for another 5 min. Then, 1 mL of agrobacterium suspension was added to the banana ECS. The mixture was mixed well and spun down at 1000 rpm for 5 min, and then, it was incubated for 25 min at room temperature. The banana cells were pooled, and the bacteria suspension was removed. The cells were inoculated in CS plates supplemented with acetosyringone 100 μM for 3 days at room temperature to promote transformation.
After 3 days, the banana ECS were collected from the previous media and transferred to CS media supplemented with cefotaxime 300 mg/L. One week later, the banana cells were transferred to EDM plates supplemented with cefo 300 mg/L (control), or cefo 300 mg/L and CSF 25 μg/L or cefo 300 mg/L and CSF 50 μg/L. The media was refreshed every 2 weeks until embryos were developed. Subsequently, the banana embryos were transferred to maturation media without CSF (EMM) for a month and then they were transferred to germination medium (GM4) without CSF until shoots developed.

Tomato plants = details: in vivo; cited from earlier work
[4] = test system: Marchantia polymorpha spores; details: (180 μg/L) for 7dd; cited from earlier work

COc1nc(C)nc(NC(=O)NS(=O)(=O)c2ccccc2Cl)n1 [CSF, chlorsulfuron]
Embryo number, 1st CSF kill curve ([1]; 0, 10, 20, 50, 200, 500 μg/L CSF for 3, 5, 10 and 15 days): major differences in embryo number were not observed | Fold-change non-CSF/+CSF (number of embryos) ([1]; 0.5 mg/L CSF for 5dd): 2.9 | Number of banana embryos developed (Avg) ([1]; 0.5 mg/L CSF for 5dd, 3 technical replicates): 1109 | Fold-change non-CSF/+CSF (number of embryos) ([1]; 0.5 mg/L CSF for 10dd): 32.6 | Number of banana embryos developed (Avg) ([1]; 0.5 mg/L CSF for 10dd): 127 | Fold-change non-CSF/+CSF (number of embryos) ([1]; 0.5 mg/L CSF for 15dd): 22.3 | Number of banana embryos developed (Avg) ([1]; 0.5 mg/L CSF for 15dd): 217 | Fold-change non-CSF/+CSF (number of embryos) ([1]; 5 mg/L CSF for 5dd): 24.9 | Number of banana embryos developed (Avg) ([1]; 5 mg/L CSF for 5dd): 127 | Fold-change non-CSF/+CSF (number of embryos) ([1]; 5 mg/L CSF for 10dd): 229.9 | Number of banana embryos developed (Avg) ([1]; 5 mg/L CSF for 10dd): 18 | Fold-change non-CSF/+CSF (number of embryos) ([1]; 5 mg/L CSF for 15dd): 167.0 | Number of banana embryos developed (Avg) ([1]; 5 mg/L CSF for 15dd): 29 | Decrease in the number of embryos ([1]; 5 mg/L CSF for 10 days): higher than 200 × | Fold-change non-CSF/+CSF (number of embryos) ([1]; 50 mg/L CSF for 5dd): 54.5 | Number of banana embryos developed (Avg) ([1]; 50 mg/L CSF for 5dd): 58 | Fold-change non-CSF/+CSF (number of embryos) ([1]; 50 mg/L CSF for 10dd): 459.8 | Number of banana embryos developed (Avg) ([1]; 50 mg/L CSF for 10dd): 9 | Fold-change non-CSF/+CSF (number of embryos) ([1]; 50 mg/L CSF for 15dd): 1210.5 | Number of banana embryos developed (Avg) ([1]; 50 mg/L CSF for 15dd): 4 | Fold-change non-CSF/+CSF (number of embryos) ([1]; 100 mg/L CSF for 5dd): 55.5 | Number of banana embryos developed (Avg) ([1]; 100 mg/L CSF for 5dd): 57 | Fold-change non-CSF/+CSF (number of embryos) ([1]; 100 mg/L CSF for 10dd): 517.3 | Number of banana embryos developed (Avg) ([1]; 100 mg/L CSF for 10dd): 8 | Fold-change non-CSF/+CSF (number of embryos) ([1]; 100 mg/L CSF for 15dd): 345.9 | Number of banana embryos developed (Avg) ([1]; 100 mg/L CSF for 15dd): 14 | CSF concentrations at which colour changes in banana ECS were observed ([1]; 2nd kill curve, after treatment): higher than 5 mg/L | Minimal lethal dose (concentration reducing number of embryos 100×; measure of success met) ([1]; 10 days of treatment): 5 mg/L | Killing of banana cells ([1]; five days of treatment, 2nd kill curve): inefficient for killing banana cells | Embryos, untransformed cells (banana ECS [2]; CSF 25 μg/L): No | Embryos, untransformed cells (banana ECS [2]; CSF 50 μg/L): No | Suitability for selection of edited bombarded cells (banana ECS [3]): too strong for selection of edited bombarded cells | CSF concentration reported to be effective (Tomato plants): 3.6 µg/L | CSF concentration reported to be effective [4]: 0.5 µM
